Results reported in US20260263651A1, “WOUND DRESSING” (UNIVERSITY OF SUNDERLAND, priority 2023, published 2026).

Tests used:
[1] = system: Staphylococcus aureus; test: Microbiological evaluation of standardised bacterial suspensions, modified wound dressing with absorbed substrate on agar; assay type: cell-based; set-up: key to Observable colour change: − indicates no colour change; +− indicates relatively discernible blue colour change; + indicates a moderately strong blue colour change; ++ indicates a strong blue colour change; settings: for colour change: SA
Description: (§1) ACTIVHEAL® simply A (10×20 cm) non-adhesive foam samples were provided by Advanced Medical Solutions Ltd. The wound dressings were cut into ~5-10×5-10 mm squares, using an ethanol washed pair of scissors. A maximum of 0.20 g of the material was added into 10 mL DI water, and the pH was adjusted to ~3 by the addition of 0.1 M aq. HCl solution. The solution was stirred for 10 mins at room temperature, followed by the addition of 0.33 g EDC •HCl (1.7 mmol) and the pH was maintained at ~3 by the addition of 0.1 M aq. HCl solution. The solution was stirred at room temperature for 10 mins followed by the addition of 0.88 g compound 8 which was dissolved in DMSO or DMF. The mixture was stirred at room temperature for 48 h. The wound dressings were filtered and were washed with ethanol. To ensure the full removal of any non-coupled amide (8), the foam samples were resuspended in ethanol, stirred for 10 mins and filtered, and this process was repeated until the amide (8) was not detectable from the filtrate (this could be maintained by TLC or HPLC evaluation). The samples were dried in a vacuum oven for 3-4 h.
(§2) The aqueous solution of 3a or 3b was prepared by the following: the desired amount of the enzymatic substrate (3.0 mg for 300 mg/L, 6.0 mg for 600 mg/L, 9.0 mg for 900 mg/L, 15.0 mg for 1500 mg/L, and 30.0 mg for 3000 mg/L) was weighed out on a 4 decimal place balance within ±0.3 mg error limit into a 10 mL volumetric flask and was adjusted to 10.0 mL with DI water. The solutions were absorbed into the foam samples and dried in a vacuum oven at 40° C. overnight.
(§3) Bacterial strains were routinely cultured from working stocks in Tryptic Soy Broth (TSB) and incubated at 37° C. overnight with shaking at 150 RPM. Overnight cultures were centrifuged at 3000×g for 5 minutes, the supernatant discarded, and the pellet resuspended in 10 mL phosphate buffered saline (PBS). Bacterial inoculums were standardised by optical density at 600 nm on an Amersham Biosciences Ultrospec 10 spectrophotometer (Amersham Biosciences, Amersham, UK) to contain between 1 and 3×10^8 CFU/mL.
(§4) However, rapid evaluation of lower bacteria concentrations is essential for the desired clinical application. […] The solutions were absorbed into the wound dressing samples, which were dried overnight under vacuum at 40° C.
(§5) Two Gram negative strains (Escherichia coli—EC and Pseudomonas aeruginosa—PSA) and a Gram-positive bacterium (Staphylococcus aureus—SA) were evaluated. The bacteria were incubated overnight, centrifuged at 3000×g for 5 mins, the supernatant was discarded, and the residue pellets were resuspended in 10 mL PBS. The inoculums were standardised by measuring the optical density at 600 nm to assure a 1-3×10^8 CFU/mL. The standardised solutions were further diluted to prepare 1-3×10^6 and 1-3×10^4 CFU/mL suspension. 1×10^6 CFU would be an ideal breakpoint for a positive result, as this concentration coincides well with a level of colonisation that would likely go on to produce an infection.
(§6) 100 μL bacterial suspensions were smeared over agar plates. Wound dressing samples were added to the top of the agar and were rolled over a few times (to ensure a full coverage and to ease the visibility of the colour change). The plates were incubated at 37° C., and the results were recorded after 24 h, after 48 h, after 72 h. The results are shown in Table 3-5; − indicates no colour change, +− indicates relatively discernible blue colour change, + indicates a moderately strong blue colour change and ++ indicates a strong blue colour change.

[2] = system: Pseudomonas aeruginosa; test: as above; assay type: cell-based; set-up: key to Observable colour change: − indicates no colour change; +− indicates relatively discernible blue colour change; + indicates a moderately strong blue colour change; ++ indicates a strong blue colour change
Description: as §1, §2, §3, §4, §5, §6

CC(C)C[C@H](N)C(=O)Nc1ccc(N(C)C)cc1.Cl [3a, (2S)-2-amino-N-[4-(dimethylamino)phenyl]-4-methyl-pentanamide hydrochloride]
Observable colour change ([1]; SA 10^4, substrate 300 mg/L, 24 h at 37° C.): −
Observable colour change ([1]; SA 10^4, substrate 300 mg/L, 48 h at 37° C.): −
Observable colour change ([1]; SA 10^4, substrate 300 mg/L, 72 h at 37° C.): −
Observable colour change ([1]; SA 10^4, substrate 900 mg/L, 24 h at 37° C.): −
Observable colour change ([1]; SA 10^4, substrate 900 mg/L, 48 h at 37° C.): −
Observable colour change ([1]; SA 10^4, substrate 900 mg/L, 72 h at 37° C.): −
Observable colour change ([1]; SA 10^4, substrate 1500 mg/L, 24 h at 37° C.): −
Observable colour change ([1]; SA 10^4, substrate 1500 mg/L, 48 h at 37° C.): −
Observable colour change ([1]; SA 10^4, substrate 1500 mg/L, 72 h at 37° C.): −
Observable colour change ([1]; SA 10^6, substrate 300 mg/L, 24 h at 37° C.): −
Observable colour change ([1]; SA 10^6, substrate 300 mg/L, 48 h at 37° C.): −
Observable colour change ([1]; SA 10^6, substrate 300 mg/L, 72 h at 37° C.): −
Observable colour change ([1]; SA 10^6, substrate 900 mg/L, 24 h at 37° C.): −
Observable colour change ([1]; SA 10^6, substrate 900 mg/L, 48 h at 37° C.): −
Observable colour change ([1]; SA 10^6, substrate 900 mg/L, 72 h at 37° C.): −
Observable colour change ([1]; SA 10^6, substrate 1500 mg/L, 24 h at 37° C.): −
Observable colour change ([1]; SA 10^6, substrate 1500 mg/L, 48 h at 37° C.): −
Observable colour change ([1]; SA 10^6, substrate 1500 mg/L, 72 h at 37° C.): −
Observable colour change ([1]; SA 10^8, substrate 300 mg/L, 24 h at 37° C.): −
Observable colour change ([1]; SA 10^8, substrate 300 mg/L, 48 h at 37° C.): −
Observable colour change ([1]; SA 10^8, substrate 300 mg/L, 72 h at 37° C.): −
Observable colour change ([1]; SA 10^8, substrate 900 mg/L, 24 h at 37° C.): −
Observable colour change ([1]; SA 10^8, substrate 900 mg/L, 48 h at 37° C.): −
Observable colour change ([1]; SA 10^8, substrate 900 mg/L, 72 h at 37° C.): −
Observable colour change ([1]; SA 10^8, substrate 1500 mg/L, 24 h at 37° C.): −
Observable colour change ([1]; SA 10^8, substrate 1500 mg/L, 48 h at 37° C.): +−
Observable colour change ([1]; SA 10^8, substrate 1500 mg/L, 72 h at 37° C.): +−
colour change ([1]; 48 h paragraph, substrate 1500 mg/L): weak, but discernible colour change
colour change ([1]; after 72 h, substrate 1500 mg/L): weak, hardly visible colour change
Observable colour change ([2]; PSA 10^4, substrate 300 mg/L, 24 h at 37° C.): −
Observable colour change ([2]; PSA 10^4, substrate 300 mg/L, 48 h at 37° C.): −
Observable colour change ([2]; PSA 10^4, substrate 300 mg/L, 72 h at 37° C.): +
Observable colour change ([2]; PSA 10^4, substrate 900 mg/L, 24 h at 37° C.): −
Observable colour change ([2]; PSA 10^4, substrate 900 mg/L, 48 h at 37° C.): +−
Observable colour change ([2]; PSA 10^4, substrate 900 mg/L, 72 h at 37° C.): ++
Observable colour change ([2]; PSA 10^4, substrate 1500 mg/L, 24 h at 37° C.): −
Observable colour change ([2]; PSA 10^4, substrate 1500 mg/L, 48 h at 37° C.): −
Observable colour change ([2]; PSA 10^4, substrate 1500 mg/L, 72 h at 37° C.): ++
Observable colour change ([2]; PSA 10^6, substrate 300 mg/L, 24 h at 37° C.): −
Observable colour change ([2]; PSA 10^6, substrate 300 mg/L, 48 h at 37° C.): −
Observable colour change ([2]; PSA 10^6, substrate 300 mg/L, 72 h at 37° C.): +
Observable colour change ([2]; PSA 10^6, substrate 900 mg/L, 24 h at 37° C.): −
Observable colour change ([2]; PSA 10^6, substrate 900 mg/L, 48 h at 37° C.): −
Observable colour change ([2]; PSA 10^6, substrate 900 mg/L, 72 h at 37° C.): ++
Observable colour change ([2]; PSA 10^6, substrate 1500 mg/L, 24 h at 37° C.): −
Observable colour change ([2]; PSA 10^6, substrate 1500 mg/L, 48 h at 37° C.): +−
Observable colour change ([2]; PSA 10^6, substrate 1500 mg/L, 72 h at 37° C.): +
colour change ([2]; PSA 10^8, 10^6 or 10^4 CFU, after 72 h, every tested substrate concentration): moderate or strong blue colour changes
Observable colour change ([2]; PSA 10^8, substrate 300 mg/L, 24 h at 37° C.): −
Observable colour change ([2]; PSA 10^8, substrate 300 mg/L, 48 h at 37° C.): −
Observable colour change ([2]; PSA 10^8, substrate 300 mg/L, 72 h at 37° C.): +
Observable colour change ([2]; PSA 10^8, substrate 900 mg/L, 24 h at 37° C.): −
Observable colour change ([2]; PSA 10^8, substrate 900 mg/L, 48 h at 37° C.): +
Observable colour change ([2]; PSA 10^8, substrate 900 mg/L, 72 h at 37° C.): ++
Observable colour change ([2]; PSA 10^8, substrate 1500 mg/L, 24 h at 37° C.): −
Observable colour change ([2]; PSA 10^8, substrate 1500 mg/L, 48 h at 37° C.): +
Observable colour change ([2]; PSA 10^8, substrate 1500 mg/L, 72 h at 37° C.): ++
colour change ([2]; PSA, substrate 900 or 1500 mg/L, printed in the 48 h paragraph): moderate or strong colour change
